According to patent US9216997B2, “Tri-heterocyclic derivatives, preparation process and uses thereof” (SHANGHAI DE NOVO PHARMATECH CO LTD., priority 2011, dated 2015):
Where two headings read alike, the source gives them in different places.

Columns and labels:
[1] = system: MV4-11 cell; test: MV4-11 cell proliferation assay (CellTiter-Glo); type: cell-based, human; conditions: MV4-11 cells, 72 hours, read-out: IC50 inhibiting MV4-11 cell proliferation
Description: Test compounds were prepared in 100% DMSO and added to the cells to achieve final concentrations from 0.2 uM to […] (10 concentration points in 3 fold serial dilution). The culture plates were then incubated at 37 C in 5% CO2 for 72 hours.
After 72 hours, the cell morphology was observed under an inverted microscope. Cell viability was then quantified at room temp using a CellTiter-Glo assay (Promega G7571) following the manufacture's instruction. Briefly, a volume of 100 ul Celltiter-Glo reagenet was added to each well to induce cell lysis. After 10 min incubation at RT, a luminescent signal was produced by measuring the amount of ATP. The signal was directly proportional to the number of viable cells present in culture.

[2] = system: MV4-11 acute myeloid leukemia zenograft tumor model; test: MV4-11 acute myeloid leukemia xenograft tumor model; type: in vivo, NOD/SCID female mice; conditions: 3 mg/kg, po, qd, 22 days; tumor-bearing NOD/SCID mice
Description: Compound C (18 mg) in 22% 2-hydroxypropyl-β=cyclodextrin (60 ml), ultrasonic 15 min to dissolve, an average of 2.14 ml divided into each of the small bottle, reserved 22 bottles for experiment.
6-8 weeks NOD/SCID female mice (18-25 g) were used. Each mouse was inoculated subcutaneously at the right flank with MV4-11 tumor cells (1×10^7) in 0.1 ml of PBS/Matrigel (1:1) for tumor development. The treatments were started when the mean tumor size reached 188 mm^3. The animals were separated even as test and control group randomly, and each group is consisted of 6 tumor-bearing mice. The test articles were orally administered (2.14 ml) to the tumor-bearing mice once a day. The date of tumor cell inoculation is denoted as day 0. The tumor volume was measured every four days, and the animals were scarified at 22 days. Statistical analyses of difference in tumor volume among the groups were evaluated using a one-way ANOVA followed by individual comparisons using Games-Howell (equal variance not assumed).
All data were analyzed using SPSS 17.0. p<0.05 was considered to be statistically significant. The antitumor activities of compounds of disclose are calculated by the formula: T C %=TRTV/CRTV×100%. (TRTV: drug treated group RTV; CRTV: vehicle treated group RTV). Evaluation standard: T/C (%)>40% considered as not effective; T/C (%) 40% considered as effective with P<0.05.

[3] = molecular target: FLT3 (Homo sapiens (Human), UniProt P36888); test: FLT3 kinase inhibition assay (Caliper mobility shift assay); type: biochemical; conditions: 0.9 nM purified FLT3, 97 uM ATP, 28° C., 60 min; read-out: IC50 inhibiting the FLT3 kinase
Chain of FLT3 (P36888 27-993): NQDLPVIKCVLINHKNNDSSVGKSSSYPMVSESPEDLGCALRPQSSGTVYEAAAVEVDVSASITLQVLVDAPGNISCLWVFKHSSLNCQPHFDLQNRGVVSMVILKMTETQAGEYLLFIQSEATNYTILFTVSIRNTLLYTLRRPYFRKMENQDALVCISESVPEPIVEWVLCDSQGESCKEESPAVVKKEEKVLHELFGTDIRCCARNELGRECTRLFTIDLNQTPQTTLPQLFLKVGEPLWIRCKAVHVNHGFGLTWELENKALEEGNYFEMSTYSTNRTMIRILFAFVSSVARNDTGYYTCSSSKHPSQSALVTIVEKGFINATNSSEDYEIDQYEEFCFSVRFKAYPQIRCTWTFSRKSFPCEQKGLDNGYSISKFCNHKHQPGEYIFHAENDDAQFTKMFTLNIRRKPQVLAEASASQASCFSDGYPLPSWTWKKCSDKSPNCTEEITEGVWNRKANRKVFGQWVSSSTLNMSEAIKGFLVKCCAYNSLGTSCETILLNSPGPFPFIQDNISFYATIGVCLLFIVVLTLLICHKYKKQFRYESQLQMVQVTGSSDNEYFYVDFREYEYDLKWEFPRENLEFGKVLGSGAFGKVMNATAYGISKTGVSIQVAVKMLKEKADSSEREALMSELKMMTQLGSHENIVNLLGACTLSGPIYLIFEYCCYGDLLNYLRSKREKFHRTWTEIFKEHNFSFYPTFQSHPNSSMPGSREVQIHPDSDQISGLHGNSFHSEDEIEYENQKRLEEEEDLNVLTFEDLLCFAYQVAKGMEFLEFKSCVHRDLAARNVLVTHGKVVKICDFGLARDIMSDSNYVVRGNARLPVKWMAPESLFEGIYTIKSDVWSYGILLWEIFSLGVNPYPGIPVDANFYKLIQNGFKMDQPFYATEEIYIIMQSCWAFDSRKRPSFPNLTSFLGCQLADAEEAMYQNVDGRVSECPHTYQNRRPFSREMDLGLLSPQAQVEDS
Description: The average of inhibitory rate of Flt3 kinase and IC50 was determined by a Caliper's mobility shift assay (MSA).
FLT3 is a receptor tyrosine kinase involved in survival and proliferation of leukemic cells. Constitutively activating FLT3 mutations has been found in about 30% of all patients with acute myeloid leukemia (AML). The tested compounds were screened for their ability to inhibit FLT3 kinase activity using Caliper's mobility shift assay (MSA). The assay uses a microfluidic chip to measure the conversion of a fluorescent peptide substrate to a phosphorylated product following separation by electrophoresis.
Data were collected on Caliper and converted into inhibition values. IC50 values were obtained using XLfit graphic program.

Row | Compound | IC50 ([1]; Homo sapiens) | IC50 [3] | IC50 [1] | T/C [2]
1 | CC(C)(C)c1cc(NC(=O)Nc2ccc(-c3cn4c(n3)sc3cc(OCCN5CCOCC5)ccc34)cc2)no1 [Quizartinib, reference compound] | 0.56 nM | – | – | 9%
2 | CC(C)(C)c1cc(NC(=O)Nc2ccc(-c3cn4c(n3)sc3nc(N5CCOCC5)ncc34)cc2)no1 [compound 8-1] | – | 19 nM | – | –
3 | CC(C)(C)c1cc(NC(=O)Nc2ccc(-c3cn4c(n3)sc3nc(OCCN5CCOCC5)ccc34)cc2)no1 [compound 28-1] | 0.7 nM | – | – | –
4 | CN1CCOC(COc2ccc3c(n2)sc2nc(-c4ccc(NC(=O)Nc5cc(C(C)(C)C)on5)cc4)cn23)C1 (centres unmarked) [compound 28-13] | 0.3 nM | – | – | –
5 | CC(C)(C)c1cc(NC(=O)Nc2ccc(-c3cn4c(n3)sc3nc(OCCCN5CCOCC5)ccc34)cc2)no1 [compound 28-6] | 0.4 nM | 47 nM | – | –
6 | CC(=O)NC1(COc2ccc3c(n2)sc2nc(-c4ccc(NC(=O)Nc5cc(C(C)(C)C)on5)cc4)cn23)CC1 [compound 35-2] | 0.52 nM | – | – | –
7 | CN(C)CCOc1ccc2c(n1)sc1nc(-c3ccc(NC(=O)Nc4cc(C(C)(C)C)on4)cc3)cn12 [compound 28-2] | 0.2 nM | 18 nM | – | –
8 | CN1C[C@@H]2C[C@H]1CN2CCOc1ccc2c(n1)sc1nc(-c3ccc(NC(=O)Nc4cc(C(C)(C)C)on4)cc3)cn12 [compound 28-8] | 0.2 nM | 10.9 nM | – | –
9 | CCN(CC)CCOc1ccc2c(n1)sc1nc(-c3ccc(NC(=O)Nc4cc(C(C)(C)C)on4)cc3)cn12 [compound 28-14] | 0.03 nM | 9.6 nM | – | –
10 | CC(C)(C)c1cc(NC(=O)Nc2ccc(-c3cn4c(n3)sc3nc(OCC5CNC5)ccc34)cc2)no1 [compound 28-11] | 0.84 nM | – | – | –
11 | CC(C)(C)c1cc(NC(=O)Nc2ccc(-c3cn4c(n3)sc3nc(OCC5CNCCO5)ccc34)cc2)no1 (centres unmarked) [compound 28-12] | 0.47 nM | – | – | –
12 | CC(C)(C)c1cc(NC(=O)Nc2ccc(-c3cn4c(n3)sc3nc(N5CCNCC5)ncc34)cc2)no1 [compound 8-4] | 1.1 nM | – | – | –
13 | CN1CCC(COc2ccc3c(n2)sc2nc(-c4ccc(NC(=O)Nc5cc(C(C)(C)C)on5)cc4)cn23)CC1 [compound 28-10] | 0.3 nM | 13 nM | – | –
14 | CC(C)(C)c1cc(NC(=O)Nc2ccc(-c3cn4c(n3)sc3nc(OCC5(NS(C)(=O)=O)CC5)ccc34)cc2)no1 [compound 35-3] | 12.9 nM | – | – | –
15 | CC(C)(C)c1cc(NC(=O)Nc2ccc(-c3cn4c(n3)sc3nc(OCCN5CCNCC5)ccc34)cc2)no1 [compound 28-3] | 0.4 nM | 34 nM | – | –
16 | CC(C)(C)c1cc(NC(=O)Nc2ccc(-c3cn4c(n3)sc3nc(OCCN5C[C@@H]6C[C@H]5CO6)ccc34)cc2)no1 [compound 28-15] | 0.05 nM | 68 nM | – | –
17 | CC(C)(C)c1cc(NC(=O)Nc2ccc(-c3cn4c(n3)sc3nc(OCC5CCNCC5)ccc34)cc2)no1 [compound 28-9] | 0.3 nM | 11 nM | – | –
18 | CC(C)(C)c1cc(NC(=O)Nc2ccc(-c3cn4c(n3)sc3nc(OCC5(N)CC5)ccc34)cc2)no1 [compound 35-1] | 1.4 nM | 38 nM | – | –
19 | CC(C)(C)c1cc(NC(=O)Nc2ccc(-c3cn4c(n3)sc3nc(N5CCC(N6CCOCC6)CC5)ncc34)cc2)no1 [compound 8-6] | 1.26 nM | – | – | –
20 | CC(C)(C)c1cc(NC(=O)Nc2ccc(-c3cn4c(n3)sc3nc(OC[C@@H]5CCCN5)ccc34)cc2)no1 [compound 35-4] | 0.9 nM | – | – | –
21 | CC(C)(C)c1cc(NC(=O)Nc2ccc(-c3cn4c(n3)sc3nc(OCCN5C[C@@H]6C[C@H]5CN6)ccc34)cc2)no1 [compound 28-7] | 0.3 nM | 1.2 nM | – | –
22 | CC(C)(C)c1cc(NC(=O)Nc2ccc(-c3cn4c(n3)sc3nc(N5CCOCC5)ccc34)cc2)no1 [compound 46] | 0.8 nM | – | – | –
23 | CNC1(COc2ccc3c(c2)sc2cc(-c4ccc(NC(=O)Nc5cc(C(C)(C)C)on5)cc4)cn23)CC1 [compound 80] | 4.7 nM | – | – | –
24 | CNC1(COc2ccc3c(n2)sc2nc(-c4ccc(NC(=O)Nc5cc(C(C)(C)C)on5)cc4)cn23)CC1 [compound 39-1] | – | 52 nM | 0.5 nM | –

More lines, main results first:

Row | IC50 ([1]; Homo sapiens) | IC50 [3] | IC50 [1] | Compound | T/C [2]
25 | 0.96 nM | – | – | CC(C)(C)c1cc(NC(=O)Nc2ccc(-c3cn4c(n3)sc3nc(NCC5(N)CC5)ccc34)cc2)no1 [compound 63-1] | –
26 | – | 10 nM | 0.03 nM | CN(C)CCNc1ccc2c(n1)sc1nc(-c3ccc(NC(=O)Nc4cc(C(C)(C)C)on4)cc3)cn12 [compound 89-1] | –
27 | 0.07 nM | – | – | CC(C)(C)c1cc(NC(=O)Nc2ccc(-c3cn4c(n3)sc3nc(NCCN5C[C@@H]6C[C@H]5CO6)ncc34)cc2)no1 [Compound 97-3] | –
28 | – | 34 nM | 0.29 nM | CC(C)(C)c1cc(NC(=O)Nc2ccc(-c3cn4c(n3)sc3nc(N5CCC(N6CCOCC6)CC5)ccc34)cc2)no1 [compound 89-5] | –
29 | – | 28 nM | 0.08 nM | CC(C)(C)c1cc(NC(=O)Nc2ccc(-c3cn4c(n3)sc3nc(NCCN5C[C@@H]6C[C@H]5CO6)ccc34)cc2)no1 [compound 89-4] | –
30 | 0.42 nM | – | – | CCN(CC)CCNc1ncc2c(n1)sc1nc(-c3ccc(NC(=O)Nc4cc(C(C)(C)C)on4)cc3)cn12 [Compound 97-2] | –
31 | 0.03 nM | – | – | CN(C)CCNc1ncc2c(n1)sc1nc(-c3ccc(NC(=O)Nc4cc(C(C)(C)C)on4)cc3)cn12 [Compound 97-1] | –
32 | 0.2 nM | 29 nM | – | CC(C)(C)c1cc(NC(=O)Nc2ccc(-c3cn4c(n3)sc3nc(NCCN5CCOCC5)ccc34)cc2)no1 [compound 53-1] | –
33 | 0.5 nM | 43 nM | – | CN(CCN1CCOCC1)c1ccc2c(n1)sc1nc(-c3ccc(NC(=O)Nc4cc(C(C)(C)C)on4)cc3)cn12 [compound 53-2] | –
34 | 0.58 nM | – | – | CNC1(CNc2ccc3c(n2)sc2nc(-c4ccc(NC(=O)Nc5cc(C(C)(C)C)on5)cc4)cn23)CC1 [compound 63-2] | –
35 | – | 19 nM | 0.04 nM | CCN(CC)CCNc1ccc2c(n1)sc1nc(-c3ccc(NC(=O)Nc4cc(C(C)(C)C)on4)cc3)cn12 [compound 89-3] | –
